This passage reports growth and inhibition of growth results from ChEMBL document CHEMBL3774345, “Synthesis of new diarylamides with pyrimidinyl pyridine scaffold and evaluation of their anti-proliferative effect on cancer cell lines” (Bioorg Med Chem Lett, 2016).

What all share (assay type): functional
A short description of experiment [1]: Cytotoxicity against human TK10 cells assessed as cell growth at 10 uM after 24 hrs by SRB assay. The note with it: TK-10, 24 h, read-out: Activity. A general note: The SRB assay estimates cell density from bound dye.
Experiment [2] can be described thus: Cytotoxicity against human UO31 cells assessed as growth inhibition at 10 uM after 24 hrs by SRB assay. The following applies: UO-31, 24 h, read-out: GI.
The nature of experiment [3]: Cytotoxicity against human HCT116 cells assessed as cell growth at 10 uM after 24 hrs by SRB assay. The following applies: HCT-116, 24 h, read-out: Activity.
Another experiment deals with MDA-MB-435. The experiment is described as follows: Cytotoxicity against human MDA-MB-435 cells assessed as cell growth at 10 uM after 24 hrs by SRB assay. The note with it: MDA-MB-435, 24 h, read-out: Activity.
For experiment [4], the system named is K562. As to the kind of experiment: Cytotoxicity against human K562 cells assessed as cell growth at 10 uM after 24 hrs by SRB assay. The note with it: K562, 24 h, read-out: Activity.
Experiment [5] in a line: Cytotoxicity against human Hs 578T cells assessed as cell growth at 10 uM after 24 hrs by SRB assay. The note with it: read-out: Activity.
The test system of a further experiment is NCI-H23. As to the kind of experiment: Cytotoxicity against human NCI-H23 cells assessed as cell growth at 10 uM after 24 hrs by SRB assay. The note with it: NCI-H23, 24 h, read-out: Activity.
A short description of experiment [6]: Cytotoxicity against human SNB75 cells assessed as cell growth at 10 uM after 24 hrs by SRB assay. The note with it: SNB-75, 24 h, read-out: Activity.
In the next experiment the test system is NCI-H460. As to the kind of experiment: Cytotoxicity against human NCI-H460 cells assessed as cell growth at 10 uM after 24 hrs by SRB assay. The following applies: NCI-H460, 24 h, read-out: Activity.
The test system of experiment [7] is NCI-H226. The experiment is described as follows: Cytotoxicity against human NCI-H226 cells assessed as cell growth at 10 uM after 24 hrs by SRB assay. The following applies: NCI-H226, 24 h, read-out: Activity.
Experiment [8] is described as follows: Cytotoxicity against human MOLT4 cells assessed as cell growth at 10 uM after 24 hrs by SRB assay. The following applies: MOLT-4, 24 h, read-out: Activity.
A short description of experiment [9]: Cytotoxicity against human RXF393 cells assessed as cell growth at 10 uM after 24 hrs by SRB assay. The note with it: RXF 393, 24 h, read-out: Activity.
Experiment [10] can be described thus: Cytotoxicity against human OVCAR5 cells assessed as cell growth at 10 uM after 24 hrs by SRB assay. The following applies: OVCAR-5, 24 h, read-out: Activity.
The nature of experiment [11]: Cytotoxicity against human UO31 cells assessed as cell growth at 10 uM after 24 hrs by SRB assay. The following applies: UO-31, 24 h, read-out: Activity.
In the next experiment the test system is SK-MEL-2. The experiment is described as follows: Cytotoxicity against human SK-MEL-2 cells assessed as cell growth at 10 uM after 24 hrs by SRB assay. The following applies: SK-MEL-2, 24 h, read-out: Activity.
A short description of experiment [12]: Cytotoxicity against human SW620 cells assessed as cell growth at 10 uM after 24 hrs by SRB assay. The following applies: SW-620, 24 h, read-out: Activity.
Experiment [13] in a line: Cytotoxicity against human HCT15 cells assessed as cell growth at 10 uM after 24 hrs by SRB assay. The note with it: HCT-15, 24 h, read-out: Activity.
The nature of experiment [14]: Cytotoxicity against human PC3 cells assessed as cell growth at 10 uM after 24 hrs by SRB assay. The following applies: PC-3, 24 h, read-out: Activity.
A further experiment relates to Malme-3M. As to the kind of experiment: Cytotoxicity against human MALME-3M cells assessed as cell growth at 10 uM after 24 hrs by SRB assay. The following applies: read-out: Activity.
A further experiment relates to A549. The experiment is described as follows: Cytotoxicity against human A549 cells assessed as cell growth at 10 uM after 24 hrs by SRB assay. The note with it: A549, 24 h, read-out: Activity.
The subject of a further experiment is EKVX. The experiment is described as follows: Cytotoxicity against human EKVX cells assessed as cell growth at 10 uM after 24 hrs by SRB assay. The following applies: read-out: Activity.
Another experiment deals with ACHN. As to the kind of experiment: Cytotoxicity against human ACHN cells assessed as cell growth at 10 uM after 24 hrs by SRB assay. The note with it: read-out: Activity.
The next experiment relates to NCI-H522. As to the kind of experiment: Cytotoxicity against human NCI-H522 cells assessed as growth inhibition at 10 uM after 24 hrs by SRB assay. The following applies: NCI-H522, 24 h, read-out: GI.
Experiment [15] is described as follows: Cytotoxicity against human HOP92 cells assessed as growth inhibition at 10 uM after 24 hrs by SRB assay. The note with it: HOP-92, 24 h, read-out: GI.
For a further experiment, the system named is MDA-MB-231. The experiment is described as follows: Cytotoxicity against human MDA-MB-231 cells assessed as growth inhibition at 10 uM after 24 hrs by SRB assay. The note with it: MDA-MB-231, 24 h, read-out: GI.
For a further experiment, the system named is SK-MEL-5. The experiment is described as follows: Cytotoxicity against human SK-MEL-5 cells assessed as growth inhibition at 10 uM after 24 hrs by SRB assay. The following applies: SK-MEL-5, 24 h, read-out: GI.
The test system of the next experiment is T47D. As to the kind of experiment: Cytotoxicity against human T47D cells assessed as growth inhibition at 10 uM after 24 hrs by SRB assay. The following applies: read-out: GI.
In experiment [16] the test system is NCI-H226. As to the kind of experiment: Cytotoxicity against human NCI-H226 cells assessed as growth inhibition at 10 uM after 24 hrs by SRB assay. The note with it: NCI-H226, 24 h, read-out: GI.
The test system of experiment [17] is K562. The experiment is described as follows: Cytotoxicity against human K562 cells assessed as growth inhibition at 10 uM after 24 hrs by SRB assay. The following applies: K562, 24 h, read-out: GI.

As for `O=C(Nc1cc(-c2cccnc2)nc(NCCCN2CCOCC2)n1)c1ccc(F)cc1Cl`, the growth at 10 µM is 97.1% in experiment [1]; 106% in [3]; 106% with MDA-MB-435; 83.3% in the experiment on K562 [4]; 105% in experiment [5]; 90.5% in the experiment with NCI-H23. The growth at 10 µM in [6] was found to be 112%; in the experiment with NCI-H460, 94.8%; in the experiment with NCI-H226 [7], 108%; in experiment [8] it was 98.4%; in experiment [9], 102%; in experiment [10] it was 100%. In addition, the growth at 10 µM in experiment [11] was determined as 77%; in the experiment with SK-MEL-2, 91.3%; in experiment [12], 90.3%; in [13] it was 94.5%; in [14], 91.2%; in the experiment on Malme-3M it was 108%. Moreover, the growth at 10 µM with A549, in the experiment on EKVX and with ACHN was 102% each time. Also, the inhibition of growth at 10 µM in experiment [2] turned out to be 23%.
`COCCCNc1nc(NC(=O)c2ccc(Cl)cc2C)cc(-c2cccnc2)n1`: the values for the inhibition of growth at 10 µM (in the experiment with NCI-H522; in experiment [15]) were 21.4% and 33%, respectively. The growth at 10 µM in experiment [1] turned out to be 88.5%; in experiment [3] it was 101%; in the experiment with MDA-MB-435, 95.6%; in the experiment with K562 [4], 104%; in experiment [5], 103%; in the experiment on NCI-H23 it was 107%. The growth at 10 µM in [6] amounted to 87.6%; in the experiment with NCI-H460, 102%; with NCI-H226 [7] it was 89.1%; in [8] it was 93.9%; in [9], 91.1%; in experiment [10], 91.6%. Besides, the growth at 10 µM turned out to be 95.9% in experiment [11]; 107% with SK-MEL-2; 109% in [12]; 109% in [13]; 110% in [14]; 103% in the experiment with Malme-3M. Also, the growth at 10 µM in the experiment on A549 came out at 79.8%; in the experiment with EKVX, 108%; in the experiment on ACHN, 99.1%.
For the compound `COc1cc(OC)cc(C(=O)Nc2cc(-c3cccnc3)nc(NCCCN3CCOCC3)n2)c1`, the growth at 10 µM in experiment [1] is 95.5%; in experiment [3], 89.2%; with MDA-MB-435 it was 102%; with K562 [4], 74.1%; in experiment [5], 69%; with NCI-H23, 91.7%. Moreover, the growth at 10 µM in [6] came out at 109%; in the experiment with NCI-H460 it was 95.3%; with NCI-H226 [7], 85.7%; in [8] it was 82.3%; in [9] it was 93.9%; in [10] it was 100%. For the same compound, the growth at 10 µM amounted to 53.6% in [11]; 84.1% in the experiment on SK-MEL-2; 99.9% in experiment [12]; 90.6% in experiment [13]; 85.4% in [14]; 110% in the experiment on Malme-3M. Also, the growth at 10 µM in the experiment with A549 was found to be 92.6%; with EKVX, 103%; with ACHN it was 103%. In addition, the inhibition of growth at 10 µM in the experiment with MDA-MB-231 amounted to 20.4%; in [2], 46.4%; in the experiment on SK-MEL-5, 31.7%; in the experiment with T47D, 27.2%; with NCI-H226 [16], 32.3%; with K562 [17], 25.9%.
